Data as given in the METLIN SMRT retention time set (Domingo-Almenara et al. 2019).

Experiment: gradient 5% acetonitrile 3 min, to 50% in 2 min, to 85% in 15 min, held 3 min, 100 µL/min
Settings: column: Zorbax Extend-C18 2.1 x 50 mm; eluents: water / acetonitrile, 0.1% formic acid
Outline: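 A Zorbax Extend-C18 column (2.1 × 50 mm, 1.8 μm) run at 100 μL/min with water and acetonitrile, both containing 0.1% formic acid, separated mixtures of ~100 pure standards. The HPLC was coupled to a quadrupole time-of-flight mass spectrometer operated in positive and negative ionization mode, with dead and dwell volumes of 40 μL and 900 μL. Each retention time was taken from a computationally picked adduct peak that was then manually inspected.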

SMILES	RP-LC retention time
COc1ccccc1-c1nc2nccc(-c3ccccc3)n2n1	862 s
CC1CCCCN1CCCNC(=O)Cn1ccc2cc(S(=O)(=O)N3CCCCCC3)ccc21 (stereo not given)	682 s
Cc1nc2nc(-c3ccccc3)nn2c(Sc2ccccc2N)c1C	710 s
Cc1noc(C)c1S(=O)(=O)N1CCOC(c2ccccc2)C1 (stereo not given)	882 s
Cc1noc(C)c1CCC(=O)N1CCCCC1c1nncn1CC1CC1 (stereo not given)	655 s
CCN1CCN(C(=O)Cn2cccc2-c2nnc(-c3ccccc3)o2)CC1	636 s
C=C[C@H]1CN2CCC1C[C@@H]2C(O)c1ccnc2ccccc12 (stereo not given in full)	576 s
COc1cccc(S(=O)(=O)N2CC(F)(F)C[C@H]2c2nnc(C)o2)c1	785 s
COc1nccnc1N1CCC(N(C)C(=O)c2ccc(C)s2)C1 (stereo not given)	785 s
COc1ccc(-c2nnc(COc3ccc(NC(=O)c4ccc(Cl)nc4)cc3)o2)cc1	877 s
Cc1ccc(CNC(=O)C2(C)CN(S(C)(=O)=O)CC(=O)N2c2ccccc2F)cc1 (stereo not given)	804 s
COc1cccc(CN2CC(c3nc(CCOCc4ccccc4)no3)C2)c1	708 s
O=C(N[C@@H]1CN(Cc2cc(Cl)ccc2F)C[C@H]1CO)C1CCC1	610 s
O=S(=O)(c1cccnc1)N1CC(c2nc(CCOCc3ccccc3)no2)C1	835 s
COc1ccc(N2CCN(C(=O)c3c(C)oc4nc(C)nc(N5CCCC5)c34)CC2)cc1	694 s
O=S(=O)(Cc1ccccc1)N1CCCCC1c1noc(COCC2CC2)n1 (stereo not given)	1050 s
CCCNC(=O)c1cc(C)nc2ccc(Br)cc12	718 s
COc1ccc(CNC(=O)NCC(c2ccccc2Cl)N(C)C)cc1 (stereo not given)	577 s
O=C(Cc1csc(Nc2cccc(C(F)(F)F)c2)n1)NCc1ccco1	636 s
COCc1nc2ccccc2n1CC(=O)Nc1ccccc1	780 s
c1ccc(CCCN2CCN(CCOC(c3ccccc3)c3ccccc3)CC2)cc1	874 s

SMILES	RP-LC retention time
CC(C)(C)c1ccc(C(=O)NC2CCN(c3cc(-c4ccc(F)cc4)[nH]n3)C2)cc1 (stereo not given)	899 s
CC(Cc1cccs1)NC(=O)CCS(=O)(=O)c1ccccc1 (stereo not given)	746 s
O=c1[nH]cc(S(=O)(=O)N2CCCC2)c(=O)[nH]1	568 s
CN(C)Cc1nc(-c2cn(C)c3ccccc23)no1	684 s
CCOc1ccc(NC(=O)N2C[C@H]3C[C@H](C2)[C@H]2CCCC(=O)N2C3)cc1	654 s
O=c1n(Cc2ccccc2F)nc2ccc(S(=O)(=O)N3CCc4ccccc4C3)cn12	984 s
CCCn1nnnc1NCc1ccc(-c2ccc(Br)cc2)o1	957 s
COc1ccc(C)cc1NC(=O)c1nc(C)oc1C	1020 s
O=C(NCC(O)c1cccc2ccccc12)c1c(F)cccc1Cl (stereo not given)	796 s
CC(C)C(=O)Nc1ccc(-n2cnc(C(=O)NCc3ccccc3)c2)nc1	738 s
CCOc1ccc(CN(Cc2cc(=O)n3cc(Cl)ccc3n2)CC(C)C)cc1	734 s
CC1CCC(NC(=O)C2CCN(c3nc4ccccc4[nH]3)CC2)CC1 (stereo not given)	649 s
OCC(O)COc1cccc2ccccc12 (stereo not given)	758 s
COc1cc(C(=O)NCC(c2cccs2)N2CCOCC2)c([N+](=O)[O-])cc1OC (stereo not given)	565 s
COc1ccc(NS(=O)(=O)c2cc(-c3nc(C(C)(C)C)cs3)cs2)cc1F	1180 s
O=C(CN1C(=O)C2CCCCC2C1=O)N1CCN(Cc2ccc3c(c2)OCO3)CC1 (stereo not given)	603 s
O=C1c2cccc3cccc(c23)C(=O)N1CC(=O)N1CCCc2ccccc21	593 s
COc1cccc(-c2nc(-c3ccc4nnn(C(C)C)c4c3)no2)c1	1150 s
COc1ccccc1CCC(=O)NCC(=O)Nc1nc2ccccc2[nH]1	652 s
COc1cc(C(CC(=O)N2CCCCCC2)N2Cc3ccccc3C2=O)cc(OC)c1OC (stereo not given)	797 s

The remaining lines, values ahead:

RP-LC retention time	SMILES
1080 s	Cc1nn(-c2nc(-c3ccc(Cl)cc3)cs2)c(C)c1CC(=O)NC(C)C
814 s	Cc1ccccc1CNC(=O)C1CCCN1S(=O)(=O)c1cc2c(cc1C)NC(=O)C(C)O2 (stereo not given)
1070 s	CCOc1ccc(CNC(=O)C2CCCN(c3nccnc3Oc3ccc(C)cc3)C2)cc1OCC (stereo not given)
605 s	CCOC(=O)N1CCC(NC(=O)c2coc(NC(=O)c3ccco3)n2)CC1
1180 s	COc1ccc(-n2c(=O)c(C(=O)NC(C)c3ccccc3)c(O)c3cccnc32)cc1 (stereo not given)
784 s	Cc1ccc(-c2cc(C(N)=O)c3ccccc3n2)cc1
566 s	Cn1nc(N2CCC(NC(=O)CCn3cnnn3)CC2)ccc1=O
946 s	O=C(CSc1nnnn1-c1ccccc1)Nc1ncc(Cc2ccccc2Cl)s1
624 s	Cc1ccccc1-c1nc2cnccn2c1NCCC(=O)NCc1ccco1
654 s	Cc1nnc2c(=O)n(CC(=O)NCc3ccccc3)c3cccnc3n12
619 s	Cn1cc(CCN2CCC(C(=O)NCC3CCCCC3)CC2)c2cccnc21
1030 s	Cc1ccc(S(=O)(=O)N2CCOCC2)cc1-c1nnc(-c2ccc(Cl)cc2)o1
875 s	COc1ccc(OC)c(CNC(=O)CCC2CCN(S(=O)(=O)c3ccccc3)CC2)c1
578 s	Cc1nc2ccn(Cc3ccco3)c(=O)c2cc1C(=O)NCCCN1CCOCC1
764 s	CCOC(=O)CSCC(=O)Nc1nnc(-c2cccc([N+](=O)[O-])c2)s1
573 s	Cc1nc2cccnc2n1C1CCN(C(=O)Nc2ccc3c(c2)OCCO3)C1 (stereo not given)
802 s	COCCCn1cnc2c(-c3ccccc3)cn(CC(=O)NCc3ccco3)c2c1=O
724 s	Cc1nc(CCNC(=O)C2CCN(S(=O)(=O)c3ccc(F)c(F)c3)CC2)cs1
1120 s	Cc1cccc(N2CCN(C(=O)c3ccc(-c4csc(C5CC5)n4)cc3)CC2C)c1 (stereo not given)
804 s	O=C(NCc1cccc(Cl)c1)C1CCCN(c2ncnc3c2nc2n3CCCCC2)C1 (stereo not given)
701 s	Cc1ccccc1Nc1c(-c2ccccc2O)nc2c(C)cccn12
778 s	COc1ccc(OC)c(NC(=O)c2ccc(S(=O)(=O)NC3CC3)cc2)c1
862 s	CCN(C(=O)Cn1nc2cc(-c3ccccc3)nc(C)n2c1=O)c1cccc(C)c1
906 s	Cc1cccc(-n2cc(C(=O)OCc3cc(=O)n4ccccc4n3)c3ccccc3c2=O)c1
717 s	CCc1cccc(C)c1NC(=O)Cn1nc2n(c1=O)CCCC2

RP-LC retention time	SMILES
794 s	Cc1ccc(Cl)cc1NC(=O)CSc1nc2ncccc2c(=O)n1CC1CCCO1 (stereo not given)
693 s	Cc1cccc(NC(=O)N2CCN(CC(=O)c3c(C)n(C)c4ccccc34)CC2)c1
1030 s	CC1CCN(c2nn(CC(=O)NCc3cccs3)c(=O)c3ccccc23)CC1
798 s	CCc1cccc(NC(=O)Cn2nc3cc(C)nc(N4CCCC4)n3c2=O)c1
577 s	Cn1cnc2cc(CNC(=O)c3ccc(F)cc3)ccc21
623 s	O=C(Cn1c(=O)c2cccn2c2ccc(F)cc21)NCCN1CCCCCC1
951 s	CCOc1ccc(-c2noc(C3CC(=O)N(c4ccc5c(c4)OCO5)C3)n2)cc1 (stereo not given)
965 s	CCOC(=O)c1noc2ncnc(N(C)c3cccc(Cl)c3)c12
682 s	O=C(NCCn1c(-c2ccc(F)cc2)nc2cccnc21)Nc1ccc2c(c1)OCCO2
705 s	COc1ccc(-c2nc3ncccn3c2Nc2ccccc2C)cc1
752 s	COc1cccc(CNC(=O)CCc2nnc3c4cc(-c5ccccc5)nn4ccn23)c1
804 s	CCOc1ccc(NC(=O)Cn2ccc3ccc(-c4nnc(C)o4)cc32)cc1
534 s	CCn1cnnc1C1CCN(C(=O)c2ccc3c(c2)OCO3)CC1
1180 s	Cc1ccc(-c2nc(-c3ccc4c(c3)nc(C)c(=O)n4C)no2)cc1C
1000 s	Cc1nc(-c2csc(S(=O)(=O)N3CCC(C(=O)N4CC=C(c5ccccc5)CC4)CC3)c2)no1
566 s	Cc1ccc(CN2CCn3c(nnc3[C@@H]3C[C@@H](O)CN3Cc3cccnc3)C2)s1
1380 s	Cc1c2c(nn1-c1ccc(SCc3ccccc3Cl)nn1)CCC2
762 s	O=C(Nc1cccnc1)C1CCN(S(=O)(=O)c2cc(-c3noc(C4CCC4)n3)cs2)CC1
825 s	Cc1ccc(N2C(=O)CN(CCc3cccs3)[C@H]3CS(=O)(=O)C[C@H]32)cc1
703 s	NS(=O)(=O)c1ccc(NC(=O)C2CCCN(c3ccc(=O)n(-c4cccc(F)c4)n3)C2)cc1 (stereo not given)
804 s	O=C(Cn1c(=O)oc2ccc(C(=O)N3CCCCC3)cc21)N1CCc2ccccc2C1
721 s	COCCn1cc(CCNC(=O)Nc2cccc(C)c2C)c2cccnc21
592 s	COc1ccc(C)cc1NC(=O)N1CCc2nc[nH]c2C1
911 s	O=C(NC1(c2nc(-c3ccncc3)no2)CCCCC1)c1ccccc1F
